Target: T1, Wee1 kinase domain (Homo sapiens, UniProt P30291)
T1 construct: Wee1 kinase domain was purchased from Carna (catalog #05-177); purchased Carna 05-177
Experiment: Wee1 Kinase Biochemical Assay (ADP-Glo)
Settings: 15 uM ATP
How it was run: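 ADP-Glo luminescence readout of ADP produced by 1 nM kinase domain phosphorylating Poly(Lys,Tyr 4:1) (2 ng/mL) at 15 uM ATP. Reaction ran 4 h, 25 °C, in Tris/MgCl2 buffer with BSA and DTT. Inhibition scaled between DMSO (high) and saturating control inhibitor (low).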

[1] = class symbols, 1 nM Wee1 enzyme, 4 hours at 25° C.
[2] = 1 nM Wee1 enzyme, 4 hours at 25° C

T1 sequence (P30291 299-569 limits assumed): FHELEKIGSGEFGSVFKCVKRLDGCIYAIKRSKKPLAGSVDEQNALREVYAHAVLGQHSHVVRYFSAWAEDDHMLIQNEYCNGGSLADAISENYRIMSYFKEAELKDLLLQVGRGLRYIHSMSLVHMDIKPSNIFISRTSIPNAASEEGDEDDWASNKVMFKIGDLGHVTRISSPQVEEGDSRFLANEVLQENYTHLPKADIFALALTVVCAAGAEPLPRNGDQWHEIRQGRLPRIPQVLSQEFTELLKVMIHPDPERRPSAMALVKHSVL

| Structure (SMILES) | IC50 [1] | IC50 (Wee1 kinase domain, ADP-Glo) | other results |
| --- | --- | --- | --- |
| CNCc1cccc(N2c3nc(NC(=O)[C@H]4C[C@@H]4c4ccccc4)ncc3[C@@]3(C)COC(C)(C)C[C@@H]23)n1 [Example 761, (1S,2S)-2-phenyl-N-((4bR,8aR)-4b,7,7-trimethyl-9-(6-((methylamino)methyl)pyridin-2-yl)-4b,5,7,8,8a,9-hexahydropyrano[3′,4′:4,5]pyrrolo[2,3-d]pyrimidin-2-yl)cyclopropane-1-carboxamide] | 10 to 100 nM |  |  |
| CN=S1(=O)CCN(c2ccc(Nc3ncc4c(n3)N(c3cccc(CNC)n3)[C@H]3CC(C)(C)OC[C@@]43C)cc2)CC1 (single isomer, unassigned) [Example 66] |  | 100 to 1000 nM |  |
| COCCN1CCC(n2ccc(Nc3ncc4c(n3)N(c3cccc(N=S(C)(C)=O)n3)[C@@H]3CC(C)(C)OC[C@]43C)cc2=O)CC1 (single isomer, unassigned) [Example 825] |  |  | IC50 [2]: < 10 nM |
| CN1CC[C@@H](c2ccc(Nc3ncc4c(n3)N(c3cccc(N5CCCC5=O)n3)[C@H]3CC(C)(C)OC[C@@]43C)cc2)C1 [Example 643, 1-(6-((4bS,8aS)-4b,7,7-trimethyl-2-((4-((S)-1-methylpyrrolidin-3-yl)phenyl)amino)-4b,7,8,8a-tetrahydropyrano[3′,4′:4,5]pyrrolo[2,3-d]pyrimidin-9(5H)-yl)pyridin-2-yl)pyrrolidin-2-one] | 10 to 100 nM |  |  |
| CC1(C)C[C@@H]2N(c3cccc(N=S(C)(C)=O)n3)c3nc(Nc4ccc([C@H]5CCNC5)cc4)ncc3[C@]2(C)CO1 (single isomer, unassigned) [Example 138] |  | 10 to 100 nM |  |
| CNC1(c2cccc(N3c4nc(Nc5ccc(N6CCOCC6)cc5)ncc4[C@]4(C)COC(C)(C)C[C@H]34)n2)CC1 (single isomer, unassigned) [Example 544] | 100 to 1000 nM |  |  |
| CN1C[C@H]2C[C@@H]1CN2c1ccc(Nc2ncc3c(n2)N(c2cccc(C(C)(C)O)n2)[C@H]2CC(C)(C)OC[C@@]32C)cc1Cl (single isomer, unassigned) [Example 434] | 10 to 100 nM |  |  |
| CN1CC[C@H](OC(=O)Nc2ncc3c(n2)N(c2cccc(N=S(C)(C)=O)n2)[C@@H]2CC(C)(C)OC[C@]32C)C1 (single isomer, unassigned) [Example 773] | 10 to 100 nM |  |  |
| C[C@H]1COC(=O)N1c1cccc(N2c3nc(Nc4ccc(N5CCNCC5)cc4)ncc3[C@]3(C)COC(C)(C)C[C@H]23)n1 (single isomer, unassigned) [Example 261] |  | 10 to 100 nM |  |
| CN1CC[C@H](n2ccc(Nc3ncc4c(n3)N(c3cccc(N=S(C)(C)=O)n3)[C@@H]3CC(C)(C)OC[C@]43C)cc2=O)C1 [Example 805, 4-(((4bR,8aR)-9-(6-((dimethyl(oxo)-16-sulfaneylidene)amino)pyridin-2-yl)-4b,7,7-trimethyl-4b,5,7,8,8a,9-hexahydropyrano[3′,4′:4,5]pyrrolo[2,3-d]pyrimidin-2-yl)amino)-1-((S)-1-methylpyrrolidin-3-yl)pyridin-2(1H)-one] | < 10 nM |  |  |
| CC1(C)C[C@H]2N(c3cccc(N=S(C)(C)=O)n3)c3nc(Nc4ccc([C@@]5(C)CCNC5)cc4)ncc3[C@@]2(C)CO1 (single isomer, unassigned) [Example 174] |  | 10 to 100 nM |  |
| CN1C[C@@H]2C[C@H]1CN2c1ccc(Nc2ncc3c(n2)N(c2cccc(C(C)(C)O)n2)[C@H]2CC(C)(C)OC[C@@]32C)cc1F (single isomer, unassigned) [Example 432] | 100 to 1000 nM |  |  |
| CN1CC(c2ccc(Nc3ncc4c(n3)N(c3cccc(N=S(C)(C)=O)n3)[C@H]3CC(C)(C)OC[C@@]43C)cc2)C1 (single isomer, unassigned) [Example 166] |  | 10 to 100 nM |  |
| C[C@H]1COC(=O)N1c1cccc(N2c3nc(Nc4ccc(N5CC6(CN(C)C6)C5)cc4)ncc3[C@]3(C)COC(C)(C)C[C@H]23)n1 (single isomer, unassigned) [Example 354] |  | 10 to 100 nM |  |
| CN(C)[C@H]1CCN(c2ccc(Nc3ncc4c(n3)N(c3ccccn3)[C@@H]3CC(C)(C)OC[C@]43C)cc2)C1 [Example 820, (4bR,8aR)-N-(4-((S)-3-(dimethylamino)pyrrolidin-1-yl)phenyl)-4b,7,7-trimethyl-9-(pyridin-2-yl)-4b,5,7,8,8a,9-hexahydropyrano[3′,4′:4,5]pyrrolo[2,3-d]pyrimidin-2-amine] |  |  | IC50 [2]: < 10 nM |
| CNCc1cccc(N2c3nc(Nc4ccc5c(c4)C(=O)N(C)C5)ncc3[C@]3(C)COC(C)(C)C[C@H]23)n1 (single isomer, unassigned) [Example 31] |  | 100 to 1000 nM |  |
| CNCc1cccc(N2c3nc(Nc4ccccc4)ncc3[C@]3(C)COC(C)(C)C[C@H]23)n1 (single isomer, unassigned) [Example 46] |  | 10 to 100 nM |  |
| CN(C)C1CCN(c2ccc(Nc3ncc4c(n3)N(c3ccccn3)[C@@H]3CC(C)(C)OC[C@]43C)cc2)CC1 (single isomer, unassigned) [Example 819] |  |  | IC50 [2]: < 10 nM |
| CNCc1cccc(N2c3nc(Nc4ccc(N5C[C@H]6C[C@@H](C5)O6)cc4)ncc3[C@]3(C)COC(C)(C)C[C@H]23)n1 (single isomer, unassigned) [Example 482] | 100 to 1000 nM |  |  |
| CN1CC[C@@H]2CN(c3ccc(Nc4ncc5c(n4)N(c4cccc(N6CCOC6=O)n4)[C@H]4CC(C)(C)OC[C@@]54C)cc3)C[C@@H]21 [Example 706, 3-(6-((4bS,8aS)-4b,7,7-trimethyl-2-((4-((3aR,6aR)-1-methylhexahydropyrrolo[3,4-b]pyrrol-5(1H)-yl)phenyl)amino)-4b,7,8,8a-tetrahydropyrano[3′,4′:4,5]pyrrolo[2,3-d]pyrimidin-9(5H)-yl)pyridin-2-yl)oxazolidin-2-one] | 10 to 100 nM |  |  |
| CC1(C)C[C@@H]2N(c3cccc(N4CCOC4=O)n3)c3nc(Nc4ccc([C@H]5CCNC5)cc4)ncc3[C@]2(C)CO1 [Example 609, 3-(6-((4bS,8aS)-4b,7,7-trimethyl-2-((4-((R)-pyrrolidin-3-yl)phenyl)amino)-4b,7,8,8a-tetrahydropyrano[3′,4′:4,5]pyrrolo[2,3-d]pyrimidin-9(5H)-yl)pyridin-2-yl)oxazolidin-2-one] | 10 to 100 nM |  |  |
| CCn1ccc(Nc2ncc3c(n2)N(c2cccc(N=S(C)(C)=O)n2)[C@@H]2CC(C)(C)OC[C@]32C)n1 (single isomer, unassigned) [Example 830] |  |  | IC50 [2]: < 10 nM |

Further lines, with some results ahead:

| IC50 [1] | IC50 (Wee1 kinase domain, ADP-Glo) | Structure (SMILES) | other results |
| --- | --- | --- | --- |
| < 10 nM |  | CC[C@]1(O)CCc2ccc(N3c4nc(Nc5ccc(N6CCN(C)CC6)cc5)ncc4[C@@]4(C)COC(C)(C)C[C@@H]34)nc21 [Example 788, (S)-7-ethyl-2-((4bR,8aR)-4b,7,7-trimethyl-2-((4-(4-methylpiperazin-1-yl)phenyl)amino)-4b,7,8,8a-tetrahydropyrano[3′,4′:4,5]pyrrolo[2,3-d]pyrimidin-9(5H)-yl)-6,7-dihydro-5H-cyclopenta[b]pyridin-7-ol] |  |
|  | 10 to 100 nM | CC1(C)C[C@@H]2N(c3cccc(N=S(C)(C)=O)n3)c3nc(Nc4ccc(O[C@@H]5CCNC5)cc4)ncc3[C@]2(C)CO1 (single isomer, unassigned) [Example 156] |  |
| 10 to 100 nM |  | C[C@H]1CCC(=O)N1c1cccc(N2c3nc(Nc4cnn(C5CCN(C)CC5)c4)ncc3C3(C)COC(C)(C)CC23)n1 (stereo in doubt) [Example 555, (S)-5-methyl-1-(6-((4bS,8aS)-4b,7,7-trimethyl-2-((1-(1-methylpiperidin-4-yl)-1H-pyrazol-4-yl)amino)-4b,7,8,8a-tetrahydropyrano[3′,4′:4,5]pyrrolo[2,3-d]pyrimidin-9(5H)-yl)pyridin-2-yl)pyrrolidin-2-one] |  |
| 100 to 1000 nM |  | C[C@H]1CN(c2cccc(N3c4nc(Nc5ccc(N6CCN(C)CC6)cc5)ncc4[C@]4(C)COC(C)(C)C[C@H]34)n2)C(=O)O1 (single isomer, unassigned) [Example 598] |  |
|  | 10 to 100 nM | C[C@H]1COC(=O)N1c1cccc(N2c3nc(Nc4ccc([C@H]5CCNC5)cc4)ncc3[C@]3(C)COC(C)(C)C[C@H]23)n1 (single isomer, unassigned) [Example 278] |  |
|  | 100 to 1000 nM | CN1CC[C@H](c2ccc(Nc3ncc4c(n3)N(c3cccc(N=S(C)(C)=O)n3)[C@H]3CC(C)(C)OC[C@@]43C)cc2)C1 (single isomer, unassigned) [Example 134] |  |
| 10 to 100 nM |  | CC1(C)C[C@H]2N(c3cccc(N=S(C)(C)=O)n3)c3nc(NC(=O)c4cccnc4)ncc3[C@@]2(C)CO1 (single isomer, unassigned) [Example 405] |  |
|  | 10 to 100 nM | C[C@H]1COC(=O)N1c1cccc(N2c3nc(Nc4ccc(C5CN(C)C5)cc4)ncc3[C@]3(C)COC(C)(C)C[C@H]23)n1 (single isomer, unassigned) [Example 309] |  |
|  | 100 to 1000 nM | CNCc1cccc(N2c3nc(Nc4ccc([C@]5(C)CCN(C)C5=O)cc4)ncc3[C@]3(C)COC(C)(C)C[C@H]23)n1 (single isomer, unassigned) [Example 77] |  |
| 10 to 100 nM |  | CC1(C)C[C@@H]2N(c3cccc(N4CCOC4=O)n3)c3nc(Nc4ccc([C@@H]5CNCC5(F)F)cc4)ncc3[C@]2(C)CO1 [Example 681, 3-(6-((4bS,8aS)-2-((4-((R)-4,4-difluoropyrrolidin-3-yl)phenyl)amino)-4b,7,7-trimethyl-4b,7,8,8a-tetrahydropyrano[3′,4′:4,5]pyrrolo[2,3-d]pyrimidin-9(5H)-yl)pyridin-2-yl)oxazolidin-2-one] |  |
| 100 to 1000 nM |  | CN[C@H](C)c1cc(C)nc(N2c3nc(Nc4ccc(N5CCOCC5)cc4)ncc3[C@]3(C)COC(C)(C)C[C@H]23)c1 (single isomer, unassigned) [Example 558] |  |
| 10 to 100 nM |  | Cc1cc(Nc2ncc3c(n2)N(c2cccc(N4CCOC4=O)n2)[C@H]2CC(C)(C)OC[C@@]32C)ccc1N1C[C@H]2C[C@@H]1CN2C [Example 661, 3-(6-((4bS,8aS)-4b,7,7-trimethyl-2-((3-methyl-4-((1R,4R)-5-methyl-2,5-diazabicyclo[2.2.1]heptan-2-yl)phenyl)amino)-4b,7,8,8a-tetrahydropyrano[3′,4′:4,5]pyrrolo[2,3-d]pyrimidin-9(5H)-yl)pyridin-2-yl)oxazolidin-2-one] |  |
